Publication PMC4129416, “YLT192, a Novel, Orally Active Bioavailable Inhibitor of VEGFR2 Signaling with Potent Antiangiogenic Activity and Antitumor Efficacy in Preclinical Models” (Scientific Reports, 2014)

Columns and labels:
[1] = Pharmacokinetics in male wistar rats; format: in vivo
Description: Appropriate pharmacokinetic parameters are essential to determine the efficacy of anti-cancer drugs. We determined the pharmacokinetic characteristics of YLT192 in male wistar rats. The pharmacokinetic parameters of YLT192 are summarized in Supplementary Table S2 and the plasma concentration versus time profile is shown in Supplementary Figure S3.
Supplementary Table S2: Pharmacokinetic parameters for YLT192 in rats (n=6 mice per group). Data are means ± SD. […]
Note: I.V.=intravenous, P.O.=orally administration, Cmax =maximum plasma concentration, AUC=area under the curve, T1/2=half life of the inhibitor, CL=clearance , Vz=volume of distribution, F=bioavailability
Supplementary Figure S3. Mean plasma concentration-time curves of YLT192.
After I.V.(20mg/kg) and P.O.(50mg/kg) administration of YLT192 in wistar male rats, the concentration of YLT192 in the plasma was determined by HPLC (n=6 mice per group). Data are means ± SD.

HCT116 cells = test: Western blot of apoptosis-related proteins caspase 3 and Bax; format: cell-based, human; conditions: 48 hours
Method: Figure 4 Inhibitory effects of YLT192 on tumor cells. (A) YLT192 inhibited U251 and HCT116 cells proliferation. The EdU incorporation assay was conducted on U251 and HCT116 cells after treated with YLT192 for 24 hours. The EdU-positive (red fluorescent staining) cells and Hoechst staining (blue fluorescent staining) cells represented proliferating and total cells in the fluorescent images, respectively (100×). Quantification was shown on the right panels. (B) YLT192 induced apoptosis of HCT116 cells. HCT116 cells were treated with YLT192 or vehicle for 48 hours followed by flow cytometric analysis of annexin V-FITC and PI staining. The proportion of early apoptotic cells (annexin V positive) and late apoptotic cells (annexin V and PI positive cells) were shown. Typical apoptosis-related proteins caspase 3 and Bax were detected by western blot. Each has the expression of β-actin as internal control. The full size blots were shown in the Supplemental Figure S6 online. […] U251 and HCT116 cells were treated with YLT192 or vehicle for 48 hours and the expression of protein in different signaling pathways were detected by western blot with specific antibodies. […]
Supplementary Figure S7. […] HCT116 cells were treated with YLT192 or vehicle for 48 hours and then typical apoptosis-related proteins caspase 3 and Bax were detected by western blot. […]

[2] = male, Wistar, rat, plasma, po, 50 mg/kg, P.O. 50 mg/kg, means ± SD, n=6

## CNC(=O)c1cc(Oc2ccc(NC(=O)c3cccc(OC)c3)cc2)ccn1 [YLT192]
[1]; P.O. 50 mg/kg, means ± SD, n=6
  Vz: 7.84 ± 1.12 L/kg
[1]; male, Wistar, rat, plasma, iv, 20 mg/kg, I.V. 20 mg/kg, means ± SD, n=6
  half-life: 246 ± 126 min
[1]; male, Wistar, rat, plasma, iv, I.V. 20 mg/kg, means ± SD, n=6
  AUC(0-inf): 65900 ± 6200 ng·h/mL
[1]; male, Wistar, rat, plasma, iv, I.V. 20 mg/kg, means ± SD, n=6, read-out: Vz
  Vd: 1.79 ± 0.24 L/kg
[1]; male, Wistar, rat, plasma, oral, P.O. 50 mg/kg vs I.V. 20 mg/kg, read-out: F (oral bioavailability)
  bioavailability: 50.5%
[1]; [2]
  Cmax: 4100 ± 400 ng/mL
  half-life: 546 ± 246 min
[1]; male, Wistar, rat, plasma, po, P.O. 50 mg/kg, means ± SD, n=6
  AUC(0-inf): 83300 ± 21900 ng·h/mL
HCT116 cells
  expression of pro-apoptotic Bax: increased
  pro-caspase-3 and its pro-apoptotic cleaved forms: a reduction of pro-caspase-3 and an increase in levels of its pro-apoptotic cleaved forms
